Laboratory results from publication PMC9317016, “Oleocanthal Attenuates Metastatic Castration-Resistant Prostate Cancer Progression and Recurrence by Targeting SMYD2” (Cancers, 2022).

Target: SMYD2 (Homo sapiens, UniProt Q9NRG4)
Experiment: scintillation proximity methyltransferase assay, 3H-methyl incorporation into p53 peptide ([…]), single […] dose
Format: biochemical

Chain of SMYD2 (Q9NRG4 whole entry): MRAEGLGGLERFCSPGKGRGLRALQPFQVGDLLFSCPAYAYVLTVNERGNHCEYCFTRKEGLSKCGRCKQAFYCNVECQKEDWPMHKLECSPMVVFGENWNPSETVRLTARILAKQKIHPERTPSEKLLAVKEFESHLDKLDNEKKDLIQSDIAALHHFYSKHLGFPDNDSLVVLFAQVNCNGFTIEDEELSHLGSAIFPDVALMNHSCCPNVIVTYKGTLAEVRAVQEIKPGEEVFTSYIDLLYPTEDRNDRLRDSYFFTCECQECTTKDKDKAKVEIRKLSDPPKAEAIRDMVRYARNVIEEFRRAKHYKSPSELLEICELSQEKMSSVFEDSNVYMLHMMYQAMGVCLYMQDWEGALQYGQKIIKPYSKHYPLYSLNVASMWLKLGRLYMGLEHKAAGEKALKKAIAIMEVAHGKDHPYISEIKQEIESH

Q: `C/C=C(/C=O)[C@@H](CC=O)CC(=O)OCCc1ccc(O)cc1` [OC, S-(-)-oleocanthal] was tested. Which inhibition at 10 µM did it give?
A: 90.8%
